Source: the Kinase Knowledgebase extract (Sharma et al. 2016)
≈ marks a conversion by molar mass, not a printed value. Where “and” joins values, the source holds several entries; their conditions need not be identical. Equal entries are not always repeated.

Key:
CDK2 (human) = CDK2 (human) (UniProt P24941); assay: Cell-Based Assay
CDK2 = CDK2 (UniProt P24941); assay: Enzyme Assay
CDK2 (rat) = assay: Cell-Based Assay; conditions: rasmc
CDK2 (mouse) = assay: Cell-Based Assay; conditions: p388
CDK2 (murine) = assay: Animal Model; conditions: l1210

IC50 (CDK2)	Structure (SMILES)	other results
> 60 µg/mL	FC(F)(F)n1cnc2c(OCc3ccc(Cl)cc3)nc(Cl)nc21	–
0.07 µg/mL (≈ 0.174 µM)	CSc1ccc(Nc2nc(N(CCO)CCO)nc3c2ncn3C(C)C)cc1	–
0.56 µg/mL (≈ 1.28 µM)	CC(C)n1cnc2c(NCc3ccc(C(F)(F)F)cc3)nc(N(CCO)CCO)nc21	–
0.63 µg/mL (≈ 1.64 µM)	CC(C)n1cnc2c(NCc3ccc(F)cc3)nc(NC[C@@H]3CCCO3)nc21	–
> 60 µg/mL	COc1ccc(CNc2nc(Cl)nc3c2ncn3CCC(=O)c2cccc3ccccc23)cc1	–
1 µg/mL (≈ 2.13 µM)	COc1ccc(CNc2nc(N(Cc3cccnc3)CC(C)C#N)nc3c2ncn3C(C)C)cc1 (stereo unspecified)	–
0.26 µg/mL (≈ 0.694 µM)	CC(C)n1cnc2c(NCc3ccc(Cl)cc3)nc(N[C@@H](C)CO)nc21	–
60 µg/mL (≈ 194 µM)	Cn1cnc2c(OCc3ccc(Cl)cc3)nc(Cl)nc21	–
37 µg/mL (≈ 85.5 µM)	CC(=O)C(C)n1cnc2c(NCc3ccc(Cl)cc3)nc(N(CCO)CCO)nc21 (stereo unspecified)	–
0.58 µg/mL (≈ 1.51 µM)	CC(C)n1cnc2c(NCc3ccc(F)cc3)nc(NC[C@H]3CCCO3)nc21	–
0.6 µg/mL (≈ 1.8 µM)	CSc1ccc(Nc2nc(Cl)nc3c2ncn3C(C)C)cc1	–
60 µg/mL (≈ 207 µM)	COc1ccc(CNc2nc(Cl)nc3[nH]cnc23)cc1	–
1.07 µg/mL (≈ 2.31 µM)	CC(C)n1cnc2c(NCc3ccc(Cl)cc3)nc(N[C@@H](Cc3ccccc3)C(N)=O)nc21	–
0.6 µg/mL (≈ 1.34 µM)	CC(C)n1cnc2c(NCc3ccc(-c4ccccc4)cc3)nc(N(CCO)CCO)nc21	IC50 (CDK2 (human); caco-2): 3.5 µg/mL (≈ 7.84 µM); IC50 (CDK2 (human); mcf-7): 1 µg/mL (≈ 2.24 µM); IC50 (CDK2 (human); ovcar): 2 µg/mL (≈ 4.48 µM); IC50 (CDK2 (human); panc1): 1.3 µg/mL (≈ 2.91 µM)
> 45 µg/mL	COc1ccc(CNc2nc(Cl)nc3c2ncn3C(F)(C(F)(F)F)C(F)(F)F)cc1	–
0.19 µg/mL (≈ 0.472 µM)	CC(C)[C@H](CO)Nc1nc(NCc2ccc(Cl)cc2)c2ncn(C(C)C)c2n1	–
> 60 µg/mL	COc1ccc(CNc2nc(Cl)nc3c2ncn3CCCC#N)cc1	–
> 60 µg/mL	COc1ccc(CNc2nc(Cl)nc3c2ncn3CCCCl)cc1	–
0.18 µg/mL (≈ 0.502 µM)	CC(CO)Nc1nc(NCc2ccc(F)cc2)c2ncn(C(C)C)c2n1 (stereo unspecified)	–

IC50 (CDK2)	Structure (SMILES)	other results
60 µg/mL (≈ 203 µM)	Clc1ccc(COc2nc(Cl)nc3[nH]cnc23)cc1	–
0.6 µg/mL (≈ 1.17 µM)	CC(C)n1cnc2c(NCc3ccc(-c4ccc(C(F)(F)F)cc4)cc3)nc(N(CCO)CCO)nc21	–
9 µg/mL (≈ 22.2 µM)	CC(C)n1cnc2c(NCc3ccc(S(N)(=O)=O)cc3)nc(NCCN)nc21	–
1 µg/mL (≈ 2.67 µM)	CC(C)n1cnc2c(NCc3ccc(Cl)cc3)nc(NCCCN)nc21	–
0.8 µg/mL (≈ 1.93 µM)	CC(C)n1cnc2c(NCc3ccc4c(c3)OCO4)nc(N(CCO)CCO)nc21	–
0.48 µg/mL (≈ 1.34 µM)	CC(N)CNc1nc(NCc2ccc(F)cc2)c2ncn(C(C)C)c2n1 (stereo unspecified)	–
–	CC(C)n1cnc2c(-c3cccc(OCc4ccccc4)c3)nc(N(CCO)CCO)nc21.CC(C)n1cnc2c(-c3cccc(Oc4ccccc4)c3)nc(N(CCO)CCO)nc21	IC50 (CDK2 (human); mcf-7): 2 µg/mL; IC50 (CDK2 (human); ovcar): 2 µg/mL; IC50 (CDK2 (human); panc1): 2.5 µg/mL; IC50 (CDK2 (mouse)): 1.5 µg/mL
0.5 µg/mL (≈ 1.25 µM)	COc1cccc(CNc2nc(N(CCO)CCO)nc3c2ncn3C(C)C)c1	–
–	COc1ccc(CNc2nc(N3CCOCC3)nc3c2ncn3C(C)C)cc1	IC50 (CDK2 (human); ovcar): 4 µg/mL (≈ 10.5 µM); IC50 (CDK2 (human); panc1): 5.5 µg/mL (≈ 14.4 µM)
0.5 µg/mL (≈ 1.09 µM)	CC(C)n1cnc2c(Nc3cccc(-c4ccc(C#N)cc4)c3)nc(N(CCO)CCO)nc21	–
1 µg/mL (≈ 2.76 µM)	FC(F)(F)n1cnc2c(NCc3ccc(Cl)cc3)nc(Cl)nc21	–
0.1 µg/mL (≈ 0.248 µM)	CSc1cccc(Nc2nc(N(CCO)CCO)nc3c2ncn3C(C)C)c1	–
> 60 µg/mL	COC(=O)c1ccc(Cn2cnc3c(NCc4ccc(OC)cc4)nc(Cl)nc32)cc1	–
0.38 µg/mL (≈ 1.01 µM)	CC(C)n1cnc2c(NCc3ccc(Cl)cc3)nc(NC[C@H](C)O)nc21	–
11 µg/mL (≈ 26.4 µM)	CC(=O)C(C)n1cnc2c(NCc3ccc(F)cc3)nc(N(CCO)CCO)nc21 (stereo unspecified)	–
1 µg/mL (≈ 2.52 µM)	COc1ccc(CNc2nc(N3CCCC(O)C3)nc3c2ncn3C(C)C)cc1 (stereo unspecified)	–
1.07 µg/mL (≈ 2.38 µM)	CC(C)n1cnc2c(NCc3ccc(Cl)cc3)nc(NC[C@@H](N)Cc3ccccc3)nc21	–
0.9 µg/mL (≈ 2.71 µM)	COc1cccc(CNc2nc(Cl)nc3c2ncn3C(C)C)c1	–
0.5 µg/mL (≈ 1.1 µM)	CC(C)n1cnc2c(NCc3ccc(-c4cccs4)cc3)nc(N(CCO)CCO)nc21	–

IC50 (CDK2)	Structure (SMILES)	other results
0.43 µg/mL (≈ 0.96 µM)	CC(C)n1cnc2c(NCc3ccc(Cl)cc3)nc(N(CCO)CCNCCO)nc21	–
–	COc1ccc(CNc2nc(N(CCO)CCO)nc3c2ncn3C(C)C)cc1	IC50 (CDK2 (rat)): 0.5 µg/mL (≈ 1.25 µM); MST (CDK2 (murine)): 13 d (3×) and 11 d and 12 d
0.35 µg/mL (≈ 0.934 µM)	CC(C)n1cnc2c(NCc3ccc(Cl)cc3)nc(N[C@H](C)CO)nc21	–
1 µg/mL (≈ 3.48 µM)	CC(C)n1cnc2c(Nc3ccccc3)nc(Cl)nc21	–
31 µg/mL (≈ 77.1 µM)	CC(C)n1cnc2c(NCc3ccc(Cl)cc3)nc(NCCCCCN)nc21	–
1 µg/mL (≈ 3.25 µM)	CC(C)n1cnc2c(NCC3CCCCC3)nc(Cl)nc21	–
0.6 µg/mL (≈ 1.39 µM)	CC(C)n1cnc2c(NCc3ccc(-c4ccccc4)cc3)nc(NCC(O)CO)nc21 (stereo unspecified)	–
2.02 µg/mL (≈ 5 µM)	CC(C)n1cnc2c(NCc3ccc(Cl)cc3)nc(NCCNCCO)nc21	–
4 µg/mL (≈ 11.2 µM)	COc1ccc(CNc2nc(NCCO)nc3c2ncn3C(C)C)cc1	–
0.16 µg/mL (≈ 0.358 µM)	CC(C)n1cnc2c(NCc3ccc(-c4ccccn4)cc3)nc(N(CCO)CCO)nc21	–
> 60 µg/mL	OCCNc1nc(NCc2ccccc2)nc2[nH]cnc12	–
59 µg/mL (≈ 130 µM)	CC(C)Cn1cnc2c(NCc3ccc(C(F)(F)F)cc3)nc(N(CCO)CCO)nc21	–
1 µg/mL (≈ 2.42 µM)	COc1ccc(CNc2nc(NC(C)(CO)C(C)C)nc3c2ncn3C(C)C)cc1 (stereo unspecified)	–
0.8 µg/mL (≈ 1.87 µM)	COc1ccc(CNc2nc(N(CC(C)O)CC(C)O)nc3c2ncn3C(C)C)cc1 (stereo unspecified)	–
1 µg/mL (≈ 2.24 µM)	COc1ccc(CNc2nc(N(CCO)Cc3ccccc3)nc3c2ncn3C(C)C)cc1	–
0.6 µg/mL (≈ 1.3 µM)	Cc1ccc(-c2ccc(CNc3nc(N(CCO)CCO)nc4c3ncn4C(C)C)cc2)cc1	–
0.43 µg/mL (≈ 1.15 µM)	CC(C)n1cnc2c(NCc3ccc(Cl)cc3)nc(NC[C@@H](C)O)nc21	–
40 µg/mL (≈ 76 µM)	COc1ccc(CNc2nc(N(CCO)CCO)nc3c2ncn3C(F)(C(F)(F)F)C(F)(F)F)cc1	–

Structure (SMILES)	IC50 (CDK2)	other results
CC(C)n1cnc2c(NCc3ccc(Cl)cc3)nc(NCCN)nc21	0.35 µg/mL (≈ 0.973 µM)	IC50 (CDK2 (human); mrc 5): 1 µg/mL (≈ 2.78 µM)
CC(C)n1cnc2c(NCc3ccc(Cl)cc3)nc(N(CCO)CCO)nc21	0.12 µg/mL (≈ 0.296 µM)	IC50 (CDK2 (human); mrc 5): 3 µg/mL (≈ 7.41 µM)
CC(C)n1cnc2c(NCc3ccc(F)cc3)nc(NC[C@@H](C)O)nc21	0.23 µg/mL (≈ 0.642 µM)	–
CC(C)n1cnc2c(NCc3ccc(Cl)cc3)nc(NCC(O)c3ccccc3)nc21 (stereo unspecified)	0.08 µg/mL (≈ 0.183 µM)	–
COc1ccc(CNc2nc(N3CC=CC3)nc3c2ncn3C(C)C)cc1	1 µg/mL (≈ 2.74 µM)	–
CC(C)n1cnc2c(NCc3ccc(F)cc3)nc(NC[C@H](C)O)nc21	0.22 µg/mL (≈ 0.614 µM)	–
COc1ccc(CNc2nc(Cl)nc3c2ncn3CC(C)C)cc1	60 µg/mL (≈ 173 µM)	–
CC(C)n1cnc2c(Nc3ccc(-c4ccccc4)cc3)nc(N(CCO)CCO)nc21	0.6 µg/mL (≈ 1.39 µM)	IC50 (CDK2 (human); caco-2): 0.5 µg/mL (≈ 1.16 µM); IC50 (CDK2 (human); mcf-7): 4 µg/mL (≈ 9.25 µM); IC50 (CDK2 (human); ovcar): 7 µg/mL (≈ 16.2 µM); IC50 (CDK2 (human); panc1): 4 µg/mL (≈ 9.25 µM); IC50 (CDK2 (rat)): 1 µg/mL (≈ 2.31 µM)
CC(C)n1cnc2c(NCc3ccc(Cl)cc3)nc(N(CCN)CCO)nc21	0.07 µg/mL (≈ 0.173 µM)	IC50 (CDK2 (human); mrc 5): 1 µg/mL (≈ 2.48 µM)
COc1ccc(CNc2nc(N(CCO)CCO)nc3c2ncn3CCO)cc1	0.5 µg/mL (≈ 1.24 µM)	–
CC(C)[C@H](CO)Nc1nc(NCc2ccc(F)cc2)c2ncn(C(C)C)c2n1	0.06 µg/mL (≈ 0.155 µM)	–
COc1ccc(CNc2nc(N(CCO)CCO)nc3c2ncn3C)cc1	4 µg/mL (≈ 10.7 µM)	–
COc1ccc(CNc2nc(Cl)nc3c2ncn3C(C)C)cc1	4 µg/mL (≈ 12.1 µM)	–
CC(C)n1cnc2c(NCc3ccc(F)cc3)nc(N(CCO)CCO)nc21	0.15 µg/mL (≈ 0.386 µM)	–
Cn1cnc2c(NCCO)nc(NCCO)nc21	> 60 µg/mL	–
CC(C)[C@@H](CO)Nc1nc(NCc2ccc(F)cc2)c2ncn(C(C)C)c2n1	0.19 µg/mL (≈ 0.492 µM)	–
COc1ccc(CNc2nc(Cl)nc3c2ncn3C)cc1	6 µg/mL (≈ 19.8 µM)	–
CC(N)CNc1nc(NCc2ccc(Cl)cc2)c2ncn(C(C)C)c2n1 (stereo unspecified)	0.05 µg/mL (≈ 0.134 µM)	IC50 (CDK2 (human); mrc 5): 1 µg/mL (≈ 2.67 µM)
COc1ccc(CNc2nc(NCC(O)CN)nc3c2ncn3C(C)C)cc1 (stereo unspecified)	0.6 µg/mL (≈ 1.56 µM)	–
COc1ccc(CNc2nc(Cl)nc3c2ncn3C(F)(F)F)cc1	> 60 µg/mL	–
COc1ccc(CNc2nc(Cl)nc3c2ncn3Cc2ccccc2)cc1	> 60 µg/mL	–
COc1ccc(CNc2nc(NCCO)nc3c2ncn3C)cc1	4 µg/mL (≈ 12.2 µM)	–
